One data set concerns the target T1, KSP motor domain (Homo sapiens, UniProt P52732).
T1 sequence (P52732 18-359 limits assumed): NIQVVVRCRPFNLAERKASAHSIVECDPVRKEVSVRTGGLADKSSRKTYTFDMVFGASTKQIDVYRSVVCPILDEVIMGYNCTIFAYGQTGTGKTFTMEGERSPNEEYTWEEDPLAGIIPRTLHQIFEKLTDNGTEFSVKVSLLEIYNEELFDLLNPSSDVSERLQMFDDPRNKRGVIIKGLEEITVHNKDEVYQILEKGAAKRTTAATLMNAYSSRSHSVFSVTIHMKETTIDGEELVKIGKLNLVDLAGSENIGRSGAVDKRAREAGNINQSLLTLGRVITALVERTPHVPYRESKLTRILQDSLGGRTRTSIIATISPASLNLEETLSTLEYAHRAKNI
The data set can be described thus: biochemical. To be noted: read-out: IC50.

Where [1] appears, read: KSP inhibitory activity, end-point assay, class symbols (Table 1).
Setting [2] is: exact IC50 values, end-point assay (Table 2).

This passage reports melting point and IC50 results from patent US20060247320A1, “Compounds for inhibiting KSP kinesin activity” (priority 2005, published 2006).

Read-outs that look alike come from different tables or passages of the source.

What is called melting point is the temperature, or range, at which the solid turns liquid. `CCOC(=O)c1nc2cc3c(nc2s1)CCC(C(C)(C)C)C3` (racemic) registered a melting point of 84 to 86 °C.

For orientation: IC50 means the concentration that gives 50% inhibition. Regarding `Cc1cc(C(=O)Nc2ccc([C@@H](CN)NC(=O)c3cc4cc5c(nc4s3)CC[C@@H](C(C)(C)C)C5)cc2)no1` [Example 274], on KSP motor domain (setting [1]), the IC50 is < 100 nM.

For `CN1CCN(C(=O)Nc2cccc([C@@H](CN)NC(=O)c3cc4cc5c(nc4s3)CC[C@@H](C(C)(C)C)C5)c2)CC1` [Example 275, 6(R)-tert-butyl-5,6,7,8-tetrahydro-thieno[2,3-b]quinoline-2-carboxylic acid (2-amino-1(S)-{3-[(4-methyl-piperazine-1-carbonyl)-amino]-phenyl}-ethyl)-amide], the IC50 on KSP motor domain (setting [1]) is < 100 nM.

On to `C[C@H]1CNCCN1C(=O)Nc1cccc([C@@H](CN)NC(=O)c2cc3cc4c(nc3s2)CC[C@@H](C(C)(C)C)C4)c1` [Example 276], for which the IC50 at KSP motor domain (setting [1]) is < 100 nM.

For `C[C@@H]1CNCCN1C(=O)Nc1cccc([C@@H](CN)NC(=O)c2cc3cc4c(nc3s2)CC[C@@H](C(C)(C)C)C4)c1` [Example 277], the figures for the IC50 at KSP motor domain (setting [1]) and on KSP motor domain (setting [2]) were < 100 nM and 10 nM, respectively.

Regarding `C[C@@H]1CN[C@@H](C)CN1C(=O)Nc1cccc([C@@H](CN)NC(=O)c2cc3cc4c(nc3s2)CC[C@@H](C(C)(C)C)C4)c1` [Example 278], on KSP motor domain (setting [1]), the IC50 fell in the range of 100 to 1000 nM.

Regarding `C[C@@H]1CN(C(=O)Nc2cccc([C@@H](CN)NC(=O)c3cc4cc5c(nc4s3)CC[C@@H](C(C)(C)C)C5)c2)C[C@H](C)N1` [Example 279], at KSP motor domain (setting [1]), the IC50 is < 100 nM.

For `C[C@H]1CN(C(=O)Nc2cccc([C@@H](CN)NC(=O)c3cc4cc5c(nc4s3)CC[C@@H](C(C)(C)C)C5)c2)CCN1` [Example 280], the IC50 on KSP motor domain (setting [1]) fell in the range of 100 to 1000 nM.

Consider `CC(C)(C)[C@@H]1CCc2nc3sc(C(=O)N[C@H](CN)c4cccc(NCc5ccncc5)c4)cc3cc2C1` [Example 281, 6(R)-tert-Butyl-5,6,7,8,-tetrahydro-thieno[2,3-b]quinoline-2-carboxylic acid (2(S)-amino-1-{3-[(pyridin-4-ylmethyl)-amino]-phenyl}-ethyl)-amide], for which the IC50 on KSP motor domain (setting [1]) is < 100 nM.

For `CC(C)(C)[C@@H]1CCc2nc3sc(C(=O)N[C@H](CN)c4cccc(NCc5cccnc5)c4)cc3cc2C1` [Example 282], the IC50 at KSP motor domain (setting [1]) was < 100 nM.

On to `CC(C)(C)[C@@H]1CCc2nc3sc(C(=O)N[C@H](CN)c4cccc(NCc5ccccc5)c4)cc3cc2C1` [Example 283], for which the IC50 on KSP motor domain (setting [1]) is < 100 nM.

As for `CC(C)(C)C1CCc2nc3sc(C(=O)N[C@H](CN)c4ccsc4)cc3cc2C1` (stereo partly drawn) [Example 284, 6-tert-butyl-5,6,7,8-tetrahydro-thieno[2,3-b]quinoline-2-carboxylic acid (2-amino-1(S)-thiophen-3-yl-ethyl)-amide], the IC50 at KSP motor domain (setting [1]) was < 100 nM; at KSP motor domain (setting [2]), 8 nM.
